Data published in US9572788B2, “Cell permeable inhibitors of anaphase promoting complex” (President and Fellows of Harvard College, priority 2014, dated 2017).
Peptide text beside a SMILES is read from it. * marks the point of attachment. Cbz = O=C(OCc1ccccc1)*

How the values were obtained:
Type in all cases: cell-based, human
HeLa H2B-GFP cells [1] = assay: Live cell imaging of mitotic duration and cell fate
Experimental: Detailed siRNA transfection and drug treatment schemes are described in supplemental experimental procedures. HeLa H2B-GFP cells were plated in DMEM with 10% FBS at 20% confluence. […] Live cell imaging was performed at 12 minute intervals on a Nikon TE2000E PFS inverted microscope fitted with an incubation chamber maintained at 37° C. and supplied with 5% CO2. Cell division was tracked by manual inspection of movies, and mitotic duration was measured as the time between the first frame of chromosome condensation and the frame of chromosome segregation (anaphase), decondensation (mitotic exit without anaphase) or cell death (chromosomes shrinking to a small bright dot).
The imaging plate was mounted onto a motorized stage (Prior ProScan II) on a Nikon TE2000E PFS inverted microscope fitted with an incubation chamber maintained at 37° C. and supplied with 5% CO2. A 20× Plan Apo 0.75 NA or 40× Plan Fluor 0.75 NA objective lens was used as indicated and images were collected with 2×2 binning. […] TIFF files of each image were exported from Elements and used to build stacks and Quicktime movies with Metamorph imaging software (Molecular Devices). For manual analysis, mitotic duration is counted as the time between the first frame of chromosome condensation and the frame of chromosome segregation (anaphase) or decondensation (mitotic exit in the presence of nocodazole) or cell death (chromosomes shrinking to a small bright dot).
HeLa H2B-GFP cells were plated in a 24-well plate in DMEM 10% FBS at 20% confluence one day prior to experiment and synchronized by double thymidine block as described above. […] Live cell imaging was set up as described above.
HeLa H2B-GFP cells were plated in a 24-well plate in DMEM+10% FBS at 20% confluence one day prior to the experiment and synchronized by double thymidine block as described above. The cells were released from the first thymidine block into 200 μl OptiMem without FBS. Transfection was performed immediately after the first thymidine release. […] The two mixtures were left at room temperature for 5 min before being mixed together and incubated for additional 20 min and then added to the cells to a final volume of 250 μl. 4 h after transfection, 250 μl of DMEM+20% FBS were added to cells.
HeLa H2B-GFP cells were plated in glass-bottom 24-well plates at 20% confluence one day prior to the experiment and synchronized by double thymidine block as described above. […] Cells were treated with 100 nM Hesperadin or DMSO 8 h after release from the second thymidine block and live cell imaging was set up as described above.
HeLa H2B-GFP cells were plated in a 24-well plate in DMEM+10% FBS at 20% confluence one day prior to experiment and synchronized by double thymidine block as synchronized above. […] Live cell imaging was set up as described above.
HeLa H2B-GFP cells were plated in a 24-well plate in DMEM+10% FBS at 20% confluence one day prior to experiment and synchronized by double thymidine block as described above. […] Untreated cells were used as the control. Live cell imaging was set up as described above. […] Alternatively, at 10 h after release from the second block, 10 μM MG132 with or without 25 μg/ml cycloheximide was added to the cells. […] Live cell imaging was set up as described above.
HeLa H2B-GFP cells were plated in a 24-well plate in DMEM+10% FBS at 20% confluence one day prior to experiment and synchronized by double thymidine block as described above. Mad2 siRNA transfection was performed as described above. At 10 h after release from the second block, 10 μM MG132 with or without 25 μg/ml cycloheximide was added to the cells. Live cell imaging was set up as described above. Manual analysis was focused only on cells that entered mitosis after MG132 addition.
Live cell imaging experiments. […] Nocodazole, taxol, proTAME, cyclinal and hesperadin were added to cells at 8 h after release. MG132 was added to cells at 10 h after release to allow mitotic entry.

HeLa H2B-GFP cells [2] = assay: Chromosome congression analysis
Experimental: HeLa H2B-GFP cells were plated in 35 mm glass-bottom dishes (MatTek) in DMEM+10% FBS at 20% confluence one day prior to the experiment and synchronized by double thymidine block as described above. Drugs were added as follows to a final volume of 3 ml from 2× concentrated preparation in culture medium. DMSO (0.06%), proTAME (3 and 12 μM) or 10 nM Nocodazole were added 8 h after release from the second block, while MG132 (10 μM) was added at 10 h. H2B-GFP was imaged for 4 hrs every 3 min at 40× magnification as described above.

HeLa cells = assay: Immunofluorescence of mitotic spindle and interkinetochore distance; details: asynchronous HeLa, 2 h; 12 μM proTAME; nocodazole or taxol
Experimental: HeLa cells grown in DMEM+10% FBS were plated on 25 mm glass coverslips in a E-well dish at a density of 130,000/ml×3 ml 48 h prior to treatment. They were then treated with 0.06% DMSO, 12 μM proTAME, 300 nM nocodazole or 300 nM taxol for 2 h. The cells were washed twice with PBS and fixed with 3% paraformaldehyde for 15 min. The cells were then washed with PBS and permeabilized with PBS plus 0.5% Triton X-100 for 2 min. The cells were then washed with PBS and blocked with PBS plus 5% FBS for 1 h. CREST antisera diluted 1:50 into PBS was added to the cells and incubated at room temperature for 1 h. The cells were washed with PBS and incubated with 1:1000 anti-human-Alexa 568 (Invitrogen, A21090) and 1:100 anti-α-tubulin-FITC for 1 h. The cells were then washed with PBS and the nuclei were stained with 1 μg/ml Hoechst 33342. The cover slips were mounted in 0.1M N-propylgallate in 9:1 glycerol:PBS. Z-series images were taken on a Nikon TE2000 microscope with PerkinElmer spinning disk confocal device. Maximal Z-projection images of individual cells were made by Image J. To measure interkinetochore distances, a straight line was drawn across a kinetochore pair in the same confocal plane and pixel intensities along the line were plotted so that each kinetochore would be represented by a peak on the line. The interkinetochore distance was calculated as the distance between the peaks. Fifty-five kinetochore pairs from 5 cells treated with DMSO or proTAME were measured and the p-value was calculated with a paired student test.

[3] = Fig 6C, compounds 8 h after release, 12 μM proTAME, 300 nM nocodazole, 150 nM taxol, 100 nM hesperadin
[4] = Fig 6D, Cdc27 siRNA, 100 nM hesperadin
[5] = Fig 6D, UbcH10 siRNA, 100 nM hesperadin
[6] = Fig 6D, control siRNA, 100 nM hesperadin
[7] = Fig 7A, control siRNA, 3 μM MG132
[8] = Fig 7B, MG132 3 μM, 100 nM hesperadin, 12 μM proTAME
[9] = Fig 7D, MG132 10 μM, 100 nM hesperadin, 12 μM proTAME
[10] = Fig 8B, MAD2 siRNA, MG132 10 μM ± 25 μg/ml cycloheximide
[11] = Fig 8B, control siRNA, MG132 10 μM ± 25 μg/ml cycloheximide
[12] = Fig S4C, proTAME 12 μM, MG132 10 μM, nocodazole 10 nM
[13] = Fig 8A, 12 μM proTAME, 300 nM nocodazole or 150 nM taxol, ± 25 μg/ml cycloheximide 4 h later

Work on CCS(=O)(=O)Nc1ccc2c(c1)/C(=C(/Nc1ccc(CN3CCCCC3)cc1)c1ccccc1)C(=O)N2 [Hesperadin, reference compound] yielded an Average mitotic duration (HeLa H2B-GFP cells [1]; [3]) of 98.7 min, a Median mitotic duration (HeLa H2B-GFP cells [1]; [3]) of 96 min and an Average mitotic duration (HeLa H2B-GFP cells [1]; [4]) of 131.8 min. The Median mitotic duration (HeLa H2B-GFP cells [1]; [4]) was 132 min, the Average mitotic duration (HeLa H2B-GFP cells [1]; [5]) was 115.8 min and the Median mitotic duration (HeLa H2B-GFP cells [1]; [5]) was 108 min. The Average mitotic duration (HeLa H2B-GFP cells [1]; [6]) was 115.6 min, the Median mitotic duration (HeLa H2B-GFP cells [1]; [6]) was 120 min and the “Mitotic duration in the presence of taxol” value (HeLa H2B-GFP cells [1]; co-treated with taxol) was ~2 h.

In the case of CC(C)C[C@@H](C=O)NC(=O)[C@H](CC(C)C)NC(=O)[C@H](CC(C)C)NC(=O)OCc1ccccc1 [MG132, reference compound] (Cbz-Leu-Leu-Leu-aldehyde), the “Median duration of mitotic arrest” value (HeLa H2B-GFP cells [1]; 3 μM) was 15 h, the “Cells that exited mitosis” value (HeLa H2B-GFP cells [1]; 3 μM, 30 h experiment) was 10% and the “Cells that exited mitosis” value (HeLa H2B-GFP cells [1]; 3 μM, cells depleted of Mad2 by RNAi) was 50%. For the same compound, the “Response of arrested cells to roscovitine” value (HeLa H2B-GFP cells [1]; 100 μM roscovitine at 12 h after release) was “showed complete resistance to roscovitine”, the Average mitotic duration (HeLa H2B-GFP cells [1]; Fig 7A, MAD2 siRNA, 3 μM MG132) was 605.3 min and the Median mitotic duration (HeLa H2B-GFP cells [1]; Fig 7A, MAD2 siRNA, 3 μM MG132) was 667.5 min. It also gave an Average mitotic duration (HeLa H2B-GFP cells [1]; [7]) of 830.1 min, a Median mitotic duration (HeLa H2B-GFP cells [1]; [7]) of 840 min and an Average mitotic duration (HeLa H2B-GFP cells [1]; [8]) of 1549.9 min. For the same compound, the Median mitotic duration (HeLa H2B-GFP cells [1]; [8]) was 1440 min, the Average mitotic duration (HeLa H2B-GFP cells [1]; [9]) was 2169.8 min and the Median mitotic duration (HeLa H2B-GFP cells [1]; [9]) was 2172 min. The Average mitotic duration (HeLa H2B-GFP cells [1]; [10]) was 1755.2 min, the Median mitotic duration (HeLa H2B-GFP cells [1]; [10]) was 1716 min and the Average mitotic duration (HeLa H2B-GFP cells [1]; [11]) was 1715.1 min. The Median mitotic duration (HeLa H2B-GFP cells [1]; [11]) was 1614 min, the “Time normal-appearing metaphase plate maintained” value (HeLa H2B-GFP cells [1]; MG132 alone) was “over 5 h” and the Median mitotic delay/arrest (HeLa H2B-GFP cells [1]; synchronized, drugs 10 hrs after release, proTAME 3 μM, low-dose MG132) was 276 min. The “Delay in chromosome congression” value (HeLa H2B-GFP cells [2]; 3 μM proTAME or 10 μM MG132) was “caused no delay in chromosome congression”, the “Average chromosome congression time” value (HeLa H2B-GFP cells [2]; [12]) was 21.6 min and the “Median chromosome congression time” value (HeLa H2B-GFP cells [2]; [12]) was 21 min.

CC(=O)O[C@H]1C(=O)[C@@]2(C)[C@H]([C@H](OC(=O)c3ccccc3)[C@]3(O)C[C@H](OC(=O)[C@H](O)[C@@H](NC(=O)c4ccccc4)c4ccccc4)C(C)=C1C3(C)C)[C@]1(OC(C)=O)CO[C@@H]1C[C@@H]2O [Taxol, reference compound] showed an Average mitotic duration (HeLa H2B-GFP cells [1]; [3]) of 1946.9 min, a Median mitotic duration (HeLa H2B-GFP cells [1]; [3]) of 2070 min and an Average mitotic duration (HeLa H2B-GFP cells [1]; [13]) of 1557.6 min. For the same compound, the Median mitotic duration (HeLa H2B-GFP cells [1]; [13]) was 1602 min, the Median mitotic duration (HeLa H2B-GFP cells [1]; unsynchronized HeLa H2B-GFP, taxol 10 nM, proTAME 3 μM, control 60 min) was 414 min and the “Effect on mitotic spindle” value (HeLa cells) was “strongly perturbed spindle organization”.
